Experimental data from US10722463B2, “Compositions and methods using same for delivering agents into a target organ protected by a blood barrier” (Zuli Holdings Ltd., priority 2005, dated 2020).

Test system: blood barrier of rabbit brain
Assay: Detection of liposomes in the brain and spinal cord by confocal microscopy after intravenous injection (Example 1)
Type: in vivo, New Zealand White male rabbits
Conditions: rabbits, 1.5 ml/kg intravenous, one and four hours following administration
Procedure: A particular liposome formulation was tested for crossing the blood barrier of rabbit brain.
The rabbits were perfused with 200-250 ml PBS prior to spinal cord excision (post the border of the medulla oblongata (between C1 to C2)) and brain removal as shown in FIG. 1 (frontal neocortex (frontal part), corpus callosum, hippocampus and mid brain)). The brains and spinal cords were harvested and fixed (3.7% formalin/PBS) for 10 minutes (37% formalin diluted with PBS 1:10, to a final concentration of 3.7%). The fixed brains and spinal cords were embedded in OCT compound, placed into plastic molds and frozen at −70° C. 8-10 μm tissue slices were cut using a cryotome at −20° C. and fixed on slides after which they were rinsed with PBS for 5 minutes. Finally, slides were mounted using mounting solution (80% glycerol/20% PBS) and sealed with nail polish. Slides were analyzed using confocal microscopy.

Molecule | detection of fluorescent marker in spinal cord and brain tissue
O=S(=O)(O)c1cc(O)c2ccc3c(S(=O)(=O)O)cc(S(=O)(=O)O)c4ccc1c2c34 [1-Hydroxypyren-3,6,8-Trisulfonic acid] | can be detected
Rhodamin-DSPE | can be detected
